The species named for assay [1] is Cavia porcellus. Put plainly: Inhibition of guinea pig classical complement system assessed as hemolysis of sensitized sheep erythrocytes at 1000 uM.
For assay [2], the species on record is Homo sapiens. Put plainly: Inhibition of human plasma alternative complement system assessed as hemolysis of non-sensitized rabbit erythrocytes at 1000 uM. The format is cell-free.
Assay [3] is filed under the species Cavia porcellus. Put plainly: Activation of guinea pig classical complement system assessed as hemolysis of sensitized sheep erythrocytes at 1000 uM.
The species named for assay [4] is Homo sapiens. Put plainly: Activation of human plasma alternative complement system assessed as hemolysis of non-sensitized rabbit erythrocytes at 1000 uM. The class given is cell-free.
The species named for assay [5] is Cavia porcellus. As to the kind of experiment: Inhibition of guinea pig classical complement system assessed as hemolysis of sensitized sheep erythrocytes.

For the compound `O=c1cc(-c2ccc(O)c(O)c2)oc2cc(O[C@@H]3O[C@H](CO)[C@@H](O)[C@H](O)[C@H]3O)cc(O)c12`, the inhibition in the assay filed under Cavia porcellus [1] stood at 25.2%; in the assay filed under Homo sapiens [2], 2%.

As to `COc1cc(-c2cc(=O)c3c(O)cc(O[C@@H]4O[C@H](CO)[C@@H](O)[C@H](O)[C@H]4O[C@@H]4O[C@@H](C)[C@H](O)[C@@H](O)[C@H]4O)cc3o2)ccc1O`, the Activity worked out at 4.6% in the assay filed under Cavia porcellus [3] and 11.2% in the assay listed under Homo sapiens [4].

For `O=c1cc(-c2ccc(O)cc2)oc2cc(O[C@@H]3O[C@H](CO)[C@@H](O)[C@H](O)[C@H]3O)cc(O)c12`, the results for the Activity in the assay filed under Cavia porcellus [3] and in the assay filed under Homo sapiens [4] were 2.34% and 2.4%, respectively.

As for `COc1cc(-c2cc(=O)c3c(O)cc(O)cc3o2)ccc1O`, the Activity was determined as 9% in the assay listed under Cavia porcellus [3] and 59% in the assay filed under Homo sapiens [4].

Consider `C[C@@H]1O[C@@H](Oc2c(-c3ccc(O)cc3)oc3cc(O)cc(O)c3c2=O)[C@H](O)[C@H](O)[C@H]1O`, for which the inhibition in the assay filed under Cavia porcellus [1] is 5.6%; in the assay filed under Homo sapiens [2], 6.2%.

In the case of `C[C@@H]1O[C@@H](OC[C@H]2O[C@@H](Oc3c(-c4ccc(O)cc4)oc4cc(O)cc(O)c4c3=O)[C@H](O)[C@@H](O)[C@@H]2O)[C@H](O)[C@H](O)[C@H]1O`, the inhibition in the assay listed under Cavia porcellus [1] came to 19.2%. In addition, the Activity in the assay filed under Homo sapiens [4] was 18.4%.

For the compound `C[C@@H]1O[C@@H](Oc2c(-c3ccc(O)c(O)c3)oc3cc(O)cc(O)c3c2=O)[C@H](O)[C@H](O)[C@H]1O`, the inhibition is 56.2% in the assay listed under Cavia porcellus [1] and 13.5% in the assay listed under Homo sapiens [2]. Moreover, the Activity result in the assay filed under Cavia porcellus [5] is “Dose-dependent effect”.

Take `COc1cc(O)c2c(=O)c(O)c(-c3ccc(OC)c(O)c3)oc2c1`: the inhibition in the assay filed under Cavia porcellus [1] was 24.3%. The Activity in the assay filed under Homo sapiens [4] turned out to be 13.7%.

As to `C[C@@H]1O[C@@H](OC[C@H]2O[C@@H](Oc3c(-c4ccc(O)c(O)c4)oc4cc(O)cc(O)c4c3=O)[C@H](O)[C@@H](O)[C@@H]2O)[C@H](O)[C@H](O)[C@H]1O`, the inhibition in the assay listed under Cavia porcellus [1] stood at 54.4%; in the assay listed under Homo sapiens [2] it was 18%. In addition, the Activity result in the assay listed under Cavia porcellus [5] is “Dose-dependent effect”.

Turning to `O=c1c(O)c(-c2ccc(O)c(O)c2)oc2cc(O)cc(O)c12`, the inhibition in the assay filed under Cavia porcellus [1] worked out at 52.5%; in the assay listed under Homo sapiens [2], 24%. The Activity result in the assay filed under Cavia porcellus [5] is “Dose-dependent effect”.

As to `O=C(/C=C/c1ccc(O)c(O)c1)O[C@H](Cc1ccc(O)c(O)c1)C(=O)O`, the inhibition was 93.3% in the assay listed under Cavia porcellus [1] and 67.8% in the assay listed under Homo sapiens [2]. In the assay listed under Cavia porcellus [5], the Activity result was “Dose-dependent effect”.

The inhibition is the share of the control response that was lost under treatment.

The record behind these values is ChEMBL document CHEMBL1159229, “In vitro anticomplementary activity of constituents from Morinda morindoides” (J Nat Prod, 1995).
